Laboratory results reported in publication PMC11062899, “De novo development of small cyclic peptides that are orally bioavailable” (Nature Chemical Biology, 2023).
Where “and” joins values, the source holds several entries; their conditions need not be identical. Equal values may be shown once. Blank lines part the entries; values can stand above or below the molecule they belong to.

Experiments:
porcine pepsin = biological target: T1, porcine pepsin (Sus scrofa, UniProt P00791); assay: Peptide stability in simulated gastric fluid (SGF); type: in vitro ADME; settings: for SGF stability, Residual peptide Average / SGF stability, Residual peptide: after 8 h vs 0 h (TIC); for SGF stability, Residual peptide Average: average of R1-R3; for SGF stability, Residual peptide: single replicates R1-R3; for remaining at 8 h: simulated gi fluid, 37 °C, pH 1.2, read-out: Proteolytic stability: SGF (8 h) % remaining
T1 construct: 0.32 g of porcine pepsin (Sigma-Aldrich, P7125) was dissolved under gentle agitation; purchased Sigma-Aldrich P7125
In short: (§1)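 Peptide from a 1 mM DMSO stock was added to fluid pre-warmed at 37 °C. SGF was pH 1.2 NaCl with porcine pepsin (0.32 g per 100 ml), and SIF was pH 6.8 potassium phosphate with porcine pancreatin (1 g per 100 ml). Supernatant peptide was quantified by LC–MS, with residual expressed as T1/T0.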

rat α-thrombin = biological target: T2, rat α-thrombin (Rattus norvegicus, UniProt P18292); assay: Protease inhibition, Ki for rat α-thrombin (fluorogenic substrate Z-Gly-Gly-Arg-AMC); type: biochemical; settings: replicates R1-R3
T2 construct: rat α-thrombin (Molecular Innovations) were used at final concentrations of 2 nM and 3 nM; purchased Molecular Innovations
In short: (§2)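 Ki values come from Cheng–Prusoff correction of IC50, itself fitted by four-parameter logistic regression of activity versus a no-peptide control. Assays used 2 nM human or 3 nM rat thrombin, 50 μM Z-Gly-Gly-Arg-AMC, 30 min kinetic fluorescence at 25 °C.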

human α-thrombin = human α-thrombin (Homo sapiens, UniProt P00734); assay: Protease inhibition, Ki for human α-thrombin (fluorogenic substrate Z-Gly-Gly-Arg-AMC); type: biochemical; settings: replicates R1-R3
In short: as §2

[1] = Passive artificial membrane permeability (PAMPA); settings: for PAMPA permeability: % permeability: 50 μM, 12–18 h, acceptor concentration relative to equilibrium; for Papp at 50 μM / Permeability% Average / Permeability% R1 / Permeability% R3: PAMPA; for Papp at 50 μM: pH 7.4; for Permeability% Average: average of R1-R3; for Permeability% R1: replicate R1; for Permeability% R1 / Permeability% R3: TIC of top well sample relative to sample at theoretical equilibrium; for Permeability% R3: replicate R3
porcine pancreatin = assay: Peptide stability in simulated intestinal fluid (SIF); type: in vitro ADME; settings: after 8 h vs 0 h (TIC); for SIF stability, Residual peptide Average: average of R1-R3
In short: as §1

[2] = as above; type: in vitro ADME, porcine; settings: simulated gi fluid; 8 h, 37 °C, pH 6.8; read-out: Proteolytic stability: SIF (8 h) % remaining
In short: as §1

[3] = Metabolic stability in rat liver microsomes (RLMs); settings: rat, microsomes
[4] = peptide 1.33E+02 uM, slope of proteolytic substrate cleavage over time
[5] = CL (ul/min/mg protein) R1, RLM CL, replicate R1
[6] = CL (ul/min/mg protein) R2, RLM CL, replicate R2
[7] = CL (ul/min/mg protein) R3, RLM CL, replicate R3
[8] = Half Life (min) R1, RLM metabolic stability, replicate R1, 0-60 min
[9] = Half Life (min) R2, RLM metabolic stability, replicate R2, 0-60 min
[10] = Half Life (min) R3, RLM metabolic stability, replicate R3, 0-60 min
[11] = Metabolic stability: RLM CL (ul/min/mg), RLMs, mean and SD, three measurements

T1 sequence (P00791 60-385): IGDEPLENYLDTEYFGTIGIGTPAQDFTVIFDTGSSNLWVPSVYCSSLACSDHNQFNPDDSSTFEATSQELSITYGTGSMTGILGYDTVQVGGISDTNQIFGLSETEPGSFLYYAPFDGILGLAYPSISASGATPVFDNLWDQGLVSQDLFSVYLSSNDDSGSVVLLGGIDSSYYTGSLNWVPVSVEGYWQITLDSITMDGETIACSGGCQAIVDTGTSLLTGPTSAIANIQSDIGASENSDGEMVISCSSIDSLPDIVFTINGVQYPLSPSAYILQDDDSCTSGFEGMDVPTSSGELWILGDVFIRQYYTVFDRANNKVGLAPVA

SGF stability, Residual peptide Average (porcine pepsin): 100.77
SGF stability, Residual peptide (porcine pepsin): 105.91 and 102.30 and 94.11
remaining at 8 h (porcine pepsin): 101 ± 8%
Rat alpha thrombin inhibition, slope normalized to DMSO (rat α-thrombin; [4]): 11.0 and 10.6 and 9.7
Rat alpha thrombin inhibition, slope normalized to DMSO (rat α-thrombin; peptide 1.67E+01 uM): 45.8 and 45.5 and 45.1
Rat alpha thrombin inhibition, slope normalized to DMSO (rat α-thrombin; peptide 2.08E+00 uM): 86.8 and 87.3 and 87.0
Rat alpha thrombin inhibition, slope normalized to DMSO (rat α-thrombin; peptide 3.33E+01 uM): 28.5 and 28.7 and 27.9
Rat alpha thrombin inhibition, slope normalized to DMSO (rat α-thrombin; peptide 4.17E+00 uM): 77.5 and 87.0 and 76.0
Rat alpha thrombin inhibition, slope normalized to DMSO (rat α-thrombin; peptide 6.67E+01 uM): 19.6 and 18.1 and 18.5
Rat alpha thrombin inhibition, slope normalized to DMSO (rat α-thrombin; peptide 8.33E+00 uM): 63.7 and 62.1 and 64.2
Human alpha thrombin inhibition, slope normalized to DMSO (human α-thrombin; peptide 1.02E-03 uM): 85.3 and 95.8 and 95.4
Human alpha thrombin inhibition, slope normalized to DMSO (human α-thrombin; peptide 1.04E+00 uM): 95.4 and 93.0 and 98.3
Human alpha thrombin inhibition, slope normalized to DMSO (human α-thrombin; peptide 1.27E-04 uM): 99.0 and 98.5 and 95.5
Human alpha thrombin inhibition, slope normalized to DMSO (human α-thrombin; peptide 1.30E-01 uM): 95.8 and 97.3 and 101.8
Human alpha thrombin inhibition, slope normalized to DMSO (human α-thrombin; [4]): 27.0 and 31.2 and 38.6
Human alpha thrombin inhibition, slope normalized to DMSO (human α-thrombin; peptide 1.63E-02 uM): 73.4 and 96.6 and 101.4
Human alpha thrombin inhibition, slope normalized to DMSO (human α-thrombin; peptide 1.67E+01 uM): 71.8 and 71.9 and 74.8
Human alpha thrombin inhibition, slope normalized to DMSO (human α-thrombin; peptide 2.03E-03 uM): 97.6 and 95.9 and 99.5
Human alpha thrombin inhibition, slope normalized to DMSO (human α-thrombin; peptide 2.08E+00 uM): 93.5 and 84.6 and 95.9
Human alpha thrombin inhibition, slope normalized to DMSO (human α-thrombin; peptide 2.54E-04 uM): 96.0 and 96.2 and 102.6
Human alpha thrombin inhibition, slope normalized to DMSO (human α-thrombin; peptide 2.60E-01 uM): 94.7 and 95.0 and 96.9
Human alpha thrombin inhibition, slope normalized to DMSO (human α-thrombin; peptide 3.18E-05 uM): 99.1 and 98.5 and 101.4
Human alpha thrombin inhibition, slope normalized to DMSO (human α-thrombin; peptide 3.26E-02 uM): 99.8 and 95.1 and 95.9
Human alpha thrombin inhibition, slope normalized to DMSO (human α-thrombin; peptide 3.33E+01 uM): 58.8 and 60.9 and 67.1
Human alpha thrombin inhibition, slope normalized to DMSO (human α-thrombin; peptide 4.07E-03 uM): 99.1 and 95.8 and 99.3
Human alpha thrombin inhibition, slope normalized to DMSO (human α-thrombin; peptide 4.17E+00 uM): 86.3 and 86.6 and 97.3
Human alpha thrombin inhibition, slope normalized to DMSO (human α-thrombin; peptide 5.09E-04 uM): 101.5 and 95.7 and 97.4
Human alpha thrombin inhibition, slope normalized to DMSO (human α-thrombin; peptide 5.21E-01 uM): 92.8 and 93.8 and 98.4
Human alpha thrombin inhibition, slope normalized to DMSO (human α-thrombin; peptide 6.36E-05 uM): 106.0 and 98.0 and 105.2
Human alpha thrombin inhibition, slope normalized to DMSO (human α-thrombin; peptide 6.51E-02 uM): 96.1 and 98.8 and 99.3
Human alpha thrombin inhibition, slope normalized to DMSO (human α-thrombin; peptide 6.67E+01 uM): 48.6 and 47.5 and 55.0
Human alpha thrombin inhibition, slope normalized to DMSO (human α-thrombin; peptide 8.14E-03 uM): 95.7 and 98.2 and 99.1
Human alpha thrombin inhibition, slope normalized to DMSO (human α-thrombin; peptide 8.33E+00 uM): 83.7 and 83.2 and 97.0
PAMPA permeability: % permeability [1]: 0.16 ± 0.08%
Papp at 50 μM [1]: 0.00933 ×10⁻⁶ cm/s
Permeability% Average [1]: 0.157%
Permeability% R1 [1]: 0.22%
Permeability% R3 [1]: 0.18%
SIF stability, Residual peptide Average (porcine pancreatin): 92.07
SIF stability, Residual peptide (porcine pancreatin; single replicates R1-R3): 101.03 and 73.69 and 101.48
remaining at 8 h [2]: 92 ± 16%
microsomal CLint [3, 5]: 10.5 µL/min/mg
microsomal CLint [3, 6]: 5.63 µL/min/mg
microsomal CLint [3, 7]: 8.11 µL/min/mg
half-life [3, 8]: > 60 min
half-life [3, 9]: > 60 min
half-life [3, 10]: > 60 min
microsomal CLint [3, 11]: 8.1 ± 2 µL/min/mg
SMILES: O=C(N[C@H]1CSCc2cccc(n2)CSCCNC(=O)[C@H](Cc2c[nH]cn2)NC(=O)C2(CCCC2)NC1=O)c1ccc(Cl)s1 [compound 29]

SGF stability, Residual peptide Average (porcine pepsin): 90.24
SGF stability, Residual peptide (porcine pepsin): 101.78 and 81.27 and 87.66
remaining at 8 h (porcine pepsin): 90 ± 10%
Rat alpha thrombin inhibition, slope normalized to DMSO (rat α-thrombin; [4]): 3.2 and 3.1 and 10.4
Rat alpha thrombin inhibition, slope normalized to DMSO (rat α-thrombin; peptide 1.67E+01 uM): 16.1 and 15.2 and 20.3
Rat alpha thrombin inhibition, slope normalized to DMSO (rat α-thrombin; peptide 2.08E+00 uM): 58.5 and 59.8 and 48.9
Rat alpha thrombin inhibition, slope normalized to DMSO (rat α-thrombin; peptide 3.33E+01 uM): 8.9 (2×) and 15.3
Rat alpha thrombin inhibition, slope normalized to DMSO (rat α-thrombin; peptide 4.17E+00 uM): 40.8 and 42.9 and 35.9
Rat alpha thrombin inhibition, slope normalized to DMSO (rat α-thrombin; peptide 6.67E+01 uM): 5.0 and 4.9 and 12.1
Rat alpha thrombin inhibition, slope normalized to DMSO (rat α-thrombin; peptide 8.33E+00 uM): 24.7 and 27.2 and 32.3
Human alpha thrombin inhibition, slope normalized to DMSO (human α-thrombin; peptide 1.02E-03 uM): 97.2 and 97.6 and 106.2
Human alpha thrombin inhibition, slope normalized to DMSO (human α-thrombin; peptide 1.04E+00 uM): 103.4 and 89.3 and 97.4
Human alpha thrombin inhibition, slope normalized to DMSO (human α-thrombin; peptide 1.27E-04 uM): 101.8 and 96.4 and 101.4
Human alpha thrombin inhibition, slope normalized to DMSO (human α-thrombin; peptide 1.30E-01 uM): 98.9 and 98.3 and 91.7
Human alpha thrombin inhibition, slope normalized to DMSO (human α-thrombin; [4]): 9.7 and 9.3 and 8.4
Human alpha thrombin inhibition, slope normalized to DMSO (human α-thrombin; peptide 1.63E-02 uM): 113.9 and 97.8 and 107.6
Human alpha thrombin inhibition, slope normalized to DMSO (human α-thrombin; peptide 1.67E+01 uM): 44.4 and 39.7 and 38.9
Human alpha thrombin inhibition, slope normalized to DMSO (human α-thrombin; peptide 2.03E-03 uM): 93.3 and 95.3 and 103.2
Human alpha thrombin inhibition, slope normalized to DMSO (human α-thrombin; peptide 2.08E+00 uM): 83.8 and 81.0 and 85.8
Human alpha thrombin inhibition, slope normalized to DMSO (human α-thrombin; peptide 2.54E-04 uM): 101.0 and 97.7 and 100.6
Human alpha thrombin inhibition, slope normalized to DMSO (human α-thrombin; peptide 2.60E-01 uM): 90.3 and 93.2 and 100.5
Human alpha thrombin inhibition, slope normalized to DMSO (human α-thrombin; peptide 3.18E-05 uM): 99.8 (2×) and 101.6
Human alpha thrombin inhibition, slope normalized to DMSO (human α-thrombin; peptide 3.26E-02 uM): 100.2 and 97.8 and 102.0
Human alpha thrombin inhibition, slope normalized to DMSO (human α-thrombin; peptide 3.33E+01 uM): 26.4 and 25.5 and 27.5
Human alpha thrombin inhibition, slope normalized to DMSO (human α-thrombin; peptide 4.07E-03 uM): 95.7 and 98.6 and 101.8
Human alpha thrombin inhibition, slope normalized to DMSO (human α-thrombin; peptide 4.17E+00 uM): 69.5 and 72.8 and 72.6
Human alpha thrombin inhibition, slope normalized to DMSO (human α-thrombin; peptide 5.09E-04 uM): 102.0 and 99.0 and 102.1
Human alpha thrombin inhibition, slope normalized to DMSO (human α-thrombin; peptide 5.21E-01 uM): 99.3 and 95.3 and 96.7
Human alpha thrombin inhibition, slope normalized to DMSO (human α-thrombin; peptide 6.36E-05 uM): 99.5 and 97.8 and 101.1
Human alpha thrombin inhibition, slope normalized to DMSO (human α-thrombin; peptide 6.51E-02 uM): 101.0 and 91.1 and 103.2
Human alpha thrombin inhibition, slope normalized to DMSO (human α-thrombin; peptide 6.67E+01 uM): 19.9 and 15.0 and 20.8
Human alpha thrombin inhibition, slope normalized to DMSO (human α-thrombin; peptide 8.14E-03 uM): 100.5 and 116.6 and 101.1
Human alpha thrombin inhibition, slope normalized to DMSO (human α-thrombin; peptide 8.33E+00 uM): 63.9 and 57.2 and 56.3
PAMPA permeability: % permeability [1]: 27 ± 1%
Papp at 50 μM [1]: 2.14 ×10⁻⁶ cm/s
Permeability% Average [1]: 27.4%
Permeability% R1 [1]: 28.09%
Permeability% R3 [1]: 26.42%
SIF stability, Residual peptide Average (porcine pancreatin): 97.68
remaining at 8 h [2]: 98 ± 11%
microsomal CLint [3, 5]: 79.9 µL/min/mg
microsomal CLint [3, 6]: 59.7 µL/min/mg
microsomal CLint [3, 7]: 75.2 µL/min/mg
half-life [3, 8]: 17.3 min
half-life [3, 9]: 23.2 min
half-life [3, 10]: 18.4 min
half-life ([3]; Metabolic stability: Half life T1/2 (min), RLMs, mean and SD, three measurements): 19.7 ± 2.5 min
microsomal CLint [3, 11]: 72 ± 9 µL/min/mg
SMILES: C[C@@H]1NC(=O)[C@@H](NC(=O)c2ccc(Cl)s2)CSCc2cccc(n2)CSCCNC(=O)[C@H]2CCCN(C2)C1=O [compound 30]
